pIC50: −log10 of the molar value.
Target: T1, androgen receptor (AR) (Homo sapiens, UniProt P10275, T878A)
T1 construct: LNCaP cells express endogenous AR; endogenous in cells; host or cells: LNCaP
T1 sequence (P10275 1-920 T878A): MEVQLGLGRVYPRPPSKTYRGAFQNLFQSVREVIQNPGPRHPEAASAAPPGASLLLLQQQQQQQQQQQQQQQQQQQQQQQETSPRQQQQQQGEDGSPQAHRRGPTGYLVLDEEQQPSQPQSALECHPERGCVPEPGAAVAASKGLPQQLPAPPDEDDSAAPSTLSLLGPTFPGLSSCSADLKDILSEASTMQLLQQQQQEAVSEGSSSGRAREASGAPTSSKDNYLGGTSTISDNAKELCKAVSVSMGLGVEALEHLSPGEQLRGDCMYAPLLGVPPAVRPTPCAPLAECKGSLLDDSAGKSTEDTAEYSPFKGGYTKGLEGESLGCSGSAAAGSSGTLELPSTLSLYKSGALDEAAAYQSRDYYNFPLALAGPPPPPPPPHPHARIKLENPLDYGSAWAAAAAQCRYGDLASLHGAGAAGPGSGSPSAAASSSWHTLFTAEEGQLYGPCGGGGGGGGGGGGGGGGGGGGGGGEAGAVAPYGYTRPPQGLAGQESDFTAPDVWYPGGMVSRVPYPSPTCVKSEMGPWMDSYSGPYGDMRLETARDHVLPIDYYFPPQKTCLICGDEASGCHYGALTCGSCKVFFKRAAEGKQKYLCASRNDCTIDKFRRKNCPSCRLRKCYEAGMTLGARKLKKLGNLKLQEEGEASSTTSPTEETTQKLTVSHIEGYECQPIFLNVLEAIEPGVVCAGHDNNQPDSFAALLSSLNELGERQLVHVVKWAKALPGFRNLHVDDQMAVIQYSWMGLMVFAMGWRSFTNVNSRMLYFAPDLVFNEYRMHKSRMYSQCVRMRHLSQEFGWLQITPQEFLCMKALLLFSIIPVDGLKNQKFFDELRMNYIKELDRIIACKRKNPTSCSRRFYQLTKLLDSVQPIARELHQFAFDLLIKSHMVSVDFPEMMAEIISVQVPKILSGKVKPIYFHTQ
Test: PSA (6.1 kb)-luciferase reporter assay in LNCaP cells induced with R1881
Assay type: cell-based
Conditions: LNCaP cells transfected with PSA (6.1 kb)-luciferase; 1 h pre-treatment, R1881 1 nM, 48 h; relative luciferase activity
From the text: LNCaP cells were employed initially for all experiments because they are well-differentiated human prostate cancer cells in which ligand-independent activation of the AR by FSK has been characterized (Nazareth et al 1996 J. Biol. Chem. 271, 19900-19907; and Sadar 1999 J. Biol. Chem. 274, 7777-7783). LNCaP cells express endogenous AR and secrete prostate-specific antigen (PSA) (Horoszewicz et al 1983Cancer Res. 43, 1809-1818). LNCaP cells can be grown either as monolayers in cell culture or as tumors in the well-characterized xenograft model that progresses to androgen independence in castrated hosts (Sato et al 1996 J. Steroid Biochem. Mol. Biol. 58, 139-146; Gleave et al 1991 Cancer Res. 51, 3753-3761; Sato et al 1997 Cancer Res. 57, 1584-1589; and Sadar et al 2002 Mol. Cancer. Ther. 1(8), 629-637). R1881 was employed since it is stable and avoids problems associated with the labile physiological ligand dihydrotestosterone (DHT). Reporter specificity may be determined using several alternative reporter gene constructs. Some well characterized ARE-driven reporter gene constructs that have been used extensively are the PSA (6.1 kb) enhance/promoter which contains several AREs and is highly inducible by androgens as well as by FSK (Ueda et al 2002 A J. Biol. Chem. 277, 7076-7085) and the ARR3-thymidine kinase (tk)-luciferase, which is an artificial reporter construct that contains three tandem repeats of the rat probasin ARE1 and ARE2 regions upstream of a luciferase reporter (Snoek et al 1996 J. Steroid Biochem. Mol. Biol. 59, 243-250).
LNCaP cells were transiently cotransfected with PSA (6.1 kb)-luciferase (0.25 μg/well) in 24-well plates for 24 h prior to pre-treatment with compounds for 1 hour before the addition of synthetic androgen, R1881 (1 nM), to induce PSA production or vehicle. The total amount of plasmid DNA transfected was normalized to 0.75 μg/well by the addition of the empty vector. After 48 h of incubation with R1881, the cells were harvested, and relative luciferase activity was determined. Test compounds were added to the cells at various concentrations and activity for each treatment was normalized to the predicted maximal activity induction (in the absence of test compounds, vehicle only). Plotting of sigmoidal curves (Boltzmann Function) and IC50 calculations were done using OriginPro 8.1 Sofware (Northampton, Mass., USA). Furthermore, toxicity was assessed by both microscopic examination and reduction of protein levels. Solubility was assessed both macroscopically (cloudy media) and microscopically (formation of granules or crystals).

pIC50	Compound
5.80	C#CCOCC(O)COc1ccc(C(C)(C)c2ccc(OCC(O)CCl)cc2)cc1 (centres unmarked) [Compound 3, 1-chloro-3-(4-(2-(4-(2-hydroxy-3-(prop-2-ynyloxy)propoxy)phenyl)propan-2-YL)phenoxy)propan-2-ol]
5.35	C#CCOCC(O)COc1ccc(C(C)(C)c2ccc(OCC(O)CO)cc2)cc1 (centres unmarked) [Compound 5, 3-(4-(2-(4-(2-hydroxy-3-(prop-2-ynyloxy)propoxy)phenyl)propan-2-yl)phenoxy)propane-1,2-diol]
5.66	C#CCOC[C@H](O)COc1ccc(C(C)(C)c2ccc(OC[C@@H](O)CCl)cc2)cc1 [Compound 10, (R)-1-chloro-3-(4-(2-(4-((S)-2-hydroxy-3-(prop-2-ynyloxy)propoxy)phenyl)propan-2-yl)phenoxy)propan-2-ol]
5.66	C#CCOC[C@H](O)COc1ccc(C(C)(C)c2ccc(OC[C@H](O)CCl)cc2)cc1 [Compound 12]
5.16	C#CCOC[C@@H](O)COc1ccc(C(C)(C)c2ccc(OC[C@H](O)CCl)cc2)cc1 [Compound 16]
5.89	C#CCOC[C@@H](O)COc1ccc(C(C)(C)c2ccc(OC[C@@H](O)CCl)cc2)cc1 [Compound 18]
4.94	COCC(O)COc1ccc(C(C)(C)c2ccc(OCC(O)CCl)cc2)cc1 (centres unmarked) [Compound 30, 1-chloro-3-(4-(2-(4-(2-hydroxy-3-methoxypropoxy)phenyl)propan-2-yl)phenoxy)propan-2-ol]
5.35	CC(C)OCC(O)COc1ccc(C(C)(C)c2ccc(OCC(O)COC(C)C)cc2)cc1 (centres unmarked) [Compound 31, 3,3′-(4,4′-(propane-2,2-diyl)bis(4,1-phenylene))bis(oxy)bis(1-isopropoxypropan-2-ol)]
5.35	CC(C)OCC(O)COc1ccc(C(C)(C)c2ccc(OCC(O)CCl)cc2)cc1 (centres unmarked) [Compound 32, 1-chloro-3-(4-(2-(4-(2-hydroxy-3-isopropdxypropoxy)phenyl)propan-2-yl)phenoxy)propan-2-ol]

Compound	pIC50
CCCCOCC(O)COc1ccc(C(C)(C)c2ccc(OCC(O)COCCCC)cc2)cc1 (centres unmarked) [Compound 33, 3,3′-(4,4′-(propane-2,2-diyl)bis(4,1-phenylene))bis(oxy)bis(1-butoxypropan-2-ol)]	6.15
CCCCOCC(O)COc1ccc(C(C)(C)c2ccc(OCC(O)CCl)cc2)cc1 (centres unmarked) [Compound 34, 1-butoxy-3-(4-(2-(4-(3-chloro-2-hydroxypropoxy)phenyl)propan-2-yl)phenoxy)propan-2-ol]	5.76

Reference: patent US20140248263A1, “BISPHENOL COMPOUNDS AND METHODS FOR THEIR USE” (THE UNIVERSITY OF BRITISH COLUMBIA, priority 2011, published 2014)
